Laboratory results as given in patent US20260137819A1 (Radionetics Oncology, Inc., priority 2022, published 2026).

Molecular target: T1, human follicle-stimulating hormone receptor (FSHR) (Homo sapiens, UniProt P23945)
T1 construct: host or cells: CHO-K1
T1 sequence (P23945 18-695): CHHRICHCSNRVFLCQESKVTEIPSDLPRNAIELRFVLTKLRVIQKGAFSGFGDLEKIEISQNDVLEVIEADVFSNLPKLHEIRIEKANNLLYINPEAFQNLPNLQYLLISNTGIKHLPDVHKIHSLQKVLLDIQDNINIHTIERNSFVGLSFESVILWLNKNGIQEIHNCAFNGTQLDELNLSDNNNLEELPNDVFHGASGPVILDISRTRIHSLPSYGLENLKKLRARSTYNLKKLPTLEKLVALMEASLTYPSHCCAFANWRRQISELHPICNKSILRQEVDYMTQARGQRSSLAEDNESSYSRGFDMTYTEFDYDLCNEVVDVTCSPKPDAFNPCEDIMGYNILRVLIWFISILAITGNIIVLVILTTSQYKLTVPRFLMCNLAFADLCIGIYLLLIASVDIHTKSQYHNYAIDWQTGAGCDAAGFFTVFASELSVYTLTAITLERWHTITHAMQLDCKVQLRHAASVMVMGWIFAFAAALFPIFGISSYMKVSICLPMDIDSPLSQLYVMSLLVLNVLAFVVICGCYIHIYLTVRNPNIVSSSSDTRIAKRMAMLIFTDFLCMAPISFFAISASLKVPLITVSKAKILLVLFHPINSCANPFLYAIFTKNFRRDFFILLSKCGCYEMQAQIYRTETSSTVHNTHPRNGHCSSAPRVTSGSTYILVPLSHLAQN
Experiment: Measurement of agonist cAMP production by activation of human FSHR
Assay type: cell-based
Conditions: CHO-K1 human FSHR cells, 30 minutes at 37° C., HTRF cAMP kit; read-out: hFSHR Agonist cAMP EC50
In short: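 cAMP output was measured by HTRF after 30 min at 37 °C agonist exposure (0–10,000 nM final) in stably FSHR-transfected CHO-K1 cells. Lysate cAMP was read off a standard curve and fitted to obtain half-maximal EC50.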

SMILES	EC50 [nM]
COc1cc2c(cc1-c1cccc(NC(=O)NCCNC(=O)[C@H](N)CCCCNC(=O)CN3CCN(CC(=O)O)CCN(CC(=O)O)CCN(CC(=O)O)CC3)c1)-c1c(c(C(=O)N3CCOCC3(C)C)nn1-c1cc(Cl)cc(Cl)c1)CO2 [Compound 23]	< 10
COc1cc2c(cc1-c1cccc(NC(=O)NCCNc3c(NCCNC(=O)CN4CCN(CC(=O)O)CCN(CC(=O)O)CCN(CC(=O)O)CC4)c(=O)c3=O)c1)-c1c(c(C(=O)N3CCOCC3(C)C)nn1-c1cc(Cl)cc(Cl)c1)CO2 [Compound 24, 2,2′,2″-(10-(2-((2-((2-((2-(3-(3-(1-(3,5-dichlorophenyl)-3-(3,3-dimethylmorpholine-4-carbonyl)-7-methoxy-1,4-dihydrochromeno|4,3-c|pyrazol-8-yl)phenyl)ureido)ethyl)amino)-3,4-dioxocyclobut-1-en-1-yl)amino)ethyl)amino)-2-oxoethyl)-1,4,7,10-tetraazacyclododecane-1,4,7-triyl)triacetic acid]	10 to 100
COc1cc2c(cc1-c1cccc(NC(=O)NCCNc3c(NCCNC(=O)CN4CCN(CC(=O)O)CCN(CC(=O)O)CCN(CC(=O)O)CC4)c(=O)c3=O)c1)-c1c(c(C(=O)N3CCOCC3(C)C)nn1-c1cc(Cl)cc(Cl)c1)CO2 [Compound 24A, indium (III) 2,2′,2″-(10-(2-((2-((2-((2-(3-(3-(1-(3,5-dichlorophenyl)-3-(3,3-dimethylmorpholine-4-carbonyl)-7-methoxy-1,4-dihydrochromeno[4,3-c]pyrazol-8-yl)phenyl)ureido)ethyl)amino)-3,4-dioxocyclobut-1-en-1-yl)amino)ethyl)amino)-2-oxoethyl)-1,4,7,10-tetraazacyclododecane-1,4,7-triyl)triacetate]	< 10
COCCOCCOCCOCCOCCOCCC(=O)N[C@H](CC(=O)N1CC2(CCCN2C(=O)CNC(=O)CN2CCN(CC(=O)O)CCN(CC(=O)O)CCN(CC(=O)O)CC2)C1)C(=O)Nc1cccc(-c2cc3c(cc2OC)OCc2c(C(=O)N4CCOCC4(C)C)nn(-c4cc(Cl)cc(Cl)c4)c2-3)c1 [Compound 25, (R)-2,2′,2″-(10-(2-((2-(2-(22-((3-(1-(3,5-dichlorophenyl)-3-(3,3-dimethylmorpholine-4-carbonyl)-7-methoxy-1,4-dihydrochromeno[4,3-c]pyrazol-8-yl)phenyl)carbamoyl)-20-oxo-2,5,8,11,14,17-hexaoxa-21-azatetracosan-24-oyl)-2,5-diazaspiro[3.4]octan-5-yl)-2-oxoethyl)amino)-2-oxoethyl)-1,4,7,10-tetraazacyclododecane-1,4,7-triyl)triacetic acid]	> 100
COc1cc2c(cc1-c1cccc(NC(=O)CCOCCOCCOCCOCCNC(=O)[C@@H](CS(=O)(=O)O)NC(=O)CN3CCN(CC(=O)O)CCN(CC(=O)O)CCN(CC(=O)O)CC3)c1)-c1c(c(C(=O)N3CCOCC3(C)C)nn1-c1cc(Cl)cc(Cl)c1)CO2 [Compound 26, (S)-2,2′,2″-(10-(21-((3-(1-(3,5-dichlorophenyl)-3-(3,3-dimethylmorpholine-4-carbonyl)-7-methoxy-1,4-dihydrochromeno[4,3-c]pyrazol-8-yl)phenyl)amino)-2,5,21-trioxo-4-(sulfomethyl)-9,12,15,18-tetraoxa-3,6-diazahenicosyl)-1,4,7,10-tetraazacyclododecane-1,4,7-triyl)triacetic acid]	< 10
COc1cc2c(cc1-c1cccc(NC(=O)CCOCCOCCOCCOCCNC(=O)[C@H](CS(=O)(=O)O)NC(=O)CN3CCN(CC(=O)O)CCN(CC(=O)O)CCN(CC(=O)O)CC3)c1)-c1c(c(C(=O)N3CCOCC3(C)C)nn1-c1cc(Cl)cc(Cl)c1)CO2 [Compound 26A, indium (III) (R)-2,2′,2″-(10-(21-((3-(1-(3,5-dichlorophenyl)-3-(3,3-dimethylmorpholine-4-carbonyl)-7-methoxy-1,4-dihydrochromeno[4,3-c]pyrazol-8-yl)phenyl)amino)-2,5,21-trioxo-4-(sulfomethyl)-9,12,15, 18-tetraoxa-3,6-diazahenicosyl)-1,4,7,10-tetraazacyclododecane-1,4,7-triyl)triacetate]	< 10
